Experimental data taken from patent US20240150290A1, “HETEROCYCLIC P2Y14 RECEPTOR ANTAGONISTS” (priority 2021, published 2024).
Like-named read-outs stand apart in the source and are kept apart here.

Target: T1, hP2Y14R (Homo sapiens, UniProt Q15391)
T1 construct: expressed in transfected cells; host or cells: CHO cells
T1 sequence (Q15391 1-338): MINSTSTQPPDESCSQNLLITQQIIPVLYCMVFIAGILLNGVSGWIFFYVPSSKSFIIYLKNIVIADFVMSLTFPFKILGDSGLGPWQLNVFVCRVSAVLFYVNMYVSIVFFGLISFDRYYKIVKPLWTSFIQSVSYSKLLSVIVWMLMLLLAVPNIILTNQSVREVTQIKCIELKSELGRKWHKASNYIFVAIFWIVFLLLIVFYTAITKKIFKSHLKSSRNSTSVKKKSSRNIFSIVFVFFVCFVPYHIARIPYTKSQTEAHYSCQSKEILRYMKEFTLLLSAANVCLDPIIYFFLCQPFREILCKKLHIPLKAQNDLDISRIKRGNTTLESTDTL
Experiment: Inhibition of fluorescent antagonist binding in whole hP2Y14R-expressing CHO cells (flow cytometry)

[1] = Example 5 table, whole cell fluorescent binding assay, read-out: IC50
[2] = Table 1, fluorescent antagonist 2, hP2Y14R-CHO cells, 3-4 determinations, read-out: IC50, hP2Y14R (μM, mean ± SEM)
[3] = Table 2, whole hP2Y14R-CHO cells, 20 nM fluorescent antagonist 3, mean+SEM, n = 3-6, read-out: IC50

| Molecule | IC50 [1] [µM] | IC50 [2] [µM] | further results |
| --- | --- | --- | --- |
| 4-(4-(6-Methoxy-2-azaspiro[3.3]heptan-6-yl)phenyl)-7-(4-(trifluoromethyl)phenyl)-2-naphthoic acid and 4-(4-(6-(methoxy-d3)-2-azaspiro[3.3]heptan-6-yl)phenyl)-7-(4-(trifluoromethyl)phenyl)-2-naphthoic acid [Compound 409] | 0.0465 ± 0.01 | – | – |
| O=C(O)c1cc(-c2ccc(C3(O)C[C@H]4CNC[C@@H]4C3)cc2)c2ccc(-c3ccc(C(F)(F)F)cc3)cc2c1 (racemic) [Compound 411, rac-4-(4-((3aR,6aR)-5-hydroxyoctahydrocyclopenta[c]pyrrol-5-yl)phenyl)-7-(4-(trifluoromethyl)phenyl)-2-naphthoic acid] | – | – | IC50 (read-out: IC50): 0.00948 ± 0.00166 µM |
| O=C(O)c1cc(-c2ccc(C3=C[C@H]4CNC[C@@H]4C3)cc2)c2ccc(-c3ccc(C(F)(F)F)cc3)cc2c1 (racemic) [Compound 412, rac-4-(4-((3aR,6aR)-1,2,3,3a,4,6a-Hexahydrocyclopenta[c]pyrrol-5-yl)phenyl)-7-(4-(trifluoromethyl)phenyl)-2-naphthoic acid] | – | – | IC50 (read-out: IC50): 0.0166 ± 0.0032 µM |
| O=C(O)c1cc(-c2ccc(C3C[C@H]4CNC[C@@H]4C3)cc2)c2ccc(-c3ccc(C(F)(F)F)cc3)cc2c1 (racemic) [Compound 413, rac-4-(4-((3aR,6aR)-Octahydrocyclopenta[c]pyrrol-5-yl)phenyl)-7-(4-(trifluoromethyl)phenyl)-2-naphthoic acid] | – | – | IC50 (read-out: IC50): 0.032 ± 0.0112 µM |
| Nc1ccc(-c2cc(C(=O)O)cc(-n3cc(-c4ccc(C(F)(F)F)cc4)nn3)c2)cc1 [Compound 7, 4′-Amino-5-(4-(4-(trifluoromethyl)phenyl)-1H-1,2,3-triazol-1-yl)-[1,1′-biphenyl]-3-carboxylic acid] | – | 1.48 ± 0.16 | – |
| CC(=O)Nc1ccc(-c2cc(C(=O)O)cc(-n3cc(-c4ccc(C(F)(F)F)cc4)nn3)c2)cc1 [Compound 8, 4′-Acetamido-5-(4-(4-(trifluoromethyl)phenyl)-1H-1,2,3-triazol-1-yl)-[1,1′-biphenyl]-3-carboxylic acid] | – | 0.811 ± 0.095 | – |
| CC(C)(C)OC(=O)N1CCC(C(=O)Nc2ccc(-c3cc(C(=O)O)cc(-n4cc(-c5ccc(C(F)(F)F)cc5)nn4)c3)cc2)CC1 [Compound 12, 4′-(1-(tert-Butoxycarbonyl)piperidine-4-carboxamido)-5-(4-(4-(trifluoromethyl)phenyl)-1H-1,2,3-triazol-1-yl)-[1,1′-biphenyl]-3-carboxylic acid] | – | 22.5 ± 3.7 | – |
| O=C(O)c1ccc(-c2cc(C(=O)O)cc(-n3cc(-c4ccc(C(F)(F)F)cc4)nn3)c2)cc1 [Compound 13, 5-(4-(4-(Trifluoromethyl)phenyl)-1H-1,2,3-triazol-1-yl)-[1,1′-biphenyl]-3,4′-dicarboxylic acid] | – | 0.632 ± 0.023 | – |
| NC(=O)Cc1ccc(-c2cc(C(=O)O)cc(-n3cc(-c4ccc(C(F)(F)F)cc4)nn3)c2)cc1 [Compound 16, 4′-(2-Amino-2-oxoethyl)-5-(4-(4-(trifluoromethyl)phenyl)-1H-1,2,3-triazol-1-yl)-[1,1′-biphenyl]-3-carboxylic acid] | – | 1.29 ± 0.32 | – |
| N#CCCc1ccc(-c2cc(C(=O)O)cc(-n3cc(-c4ccc(C(F)(F)F)cc4)nn3)c2)cc1 [Compound 17, 4′-(2-Cyanoethyl)-5-(4-(4-(trifluoromethyl)phenyl)-1H-1,2,3-triazol-1-yl)-[1,1′-biphenyl]-3-carboxylic acid] | – | 17.8 ± 2.9 | – |
| NCCCc1ccc(-c2cc(C(=O)O)cc(-n3cc(-c4ccc(C(F)(F)F)cc4)nn3)c2)cc1 [Compound 18, 4′-(3-Aminopropyl)-5-(4-(4-(trifluoromethyl)phenyl)-1H-1,2,3-triazol-1-yl)-[1,1′-biphenyl]-3-carboxylic acid] | – | 0.292 ± 0.067 | – |
| O=C(O)c1cc(-c2ccc(CCCCO)cc2)cc(-n2cc(-c3ccc(C(F)(F)F)cc3)nn2)c1 [Compound 21, 4′-(4-Hydroxybutyl)-5-(4-(4-(trifluoromethyl)phenyl)-1H-1,2,3-triazol-1-yl)-[1,1′-biphenyl]-3-carboxylic acid] | – | 9.22 ± 1.22 | – |
| NC1(c2ccc(-c3cc(C(=O)O)cc(-n4cc(-c5ccc(C(F)(F)F)cc5)nn4)c3)cc2)CC1 [Compound 22, 4′-(1-Aminocyclopropyl)-5-(4-(4-(trifluoromethyl)phenyl)-1H-1,2,3-triazol-1-yl)-[1,1′-biphenyl]-3-carboxylic acid] | – | 14.1 ± 0.9 | – |
| NCC1(c2ccc(-c3cc(C(=O)O)cc(-n4cc(-c5ccc(C(F)(F)F)cc5)nn4)c3)cc2)CC1 [Compound 23, 4′-(1-(Aminomethyl)cyclopropyl)-5-(4-(4-(trifluoromethyl)phenyl)-1H-1,2,3-triazol-1-yl)-[1,1′-biphenyl]-3-carboxylic acid] | – | 8.91 ± 0.75 | – |
| CC(C)(C)OC(=O)NCC1(c2ccc(-c3cc(C(=O)O)cc(-n4cc(-c5ccc(C(F)(F)F)cc5)nn4)c3)cc2)CC1 [Compound 24, 4′-(1-(((tert-Butoxycarbonyl)amino)methyl)cyclopropyl)-5-(4-(4-(trifluoromethyl)phenyl)-1H-1,2,3-triazol-1-yl)-[1,1′-biphenyl]-3-carboxylic acid] | – | 18.8 ± 2 | – |
| NC1(c2ccc(-c3cc(C(=O)O)cc(-n4cc(-c5ccc(C(F)(F)F)cc5)nn4)c3)cc2)CCC1 [Compound 25, 4′-(1-Aminocyclobutyl)-5-(4-(4-(trifluoromethyl)phenyl)-1H-1,2,3-triazol-1-yl)-[1,1′-biphenyl]-3-carboxylic acid] | – | 2 ± 0.18 | – |
| O=C(O)c1cc(-c2ccc(-c3cc(CCO)on3)cc2)cc(-n2cc(-c3ccc(C(F)(F)F)cc3)nn2)c1 [Compound 30, 4′-(5-(2-Hydroxyethyl)isoxazol-3-yl)-5-(4-(4-(trifluoromethyl)phenyl)-1H-1,2,3-triazol-1-yl)-[1,1′-biphenyl]-3-carboxylic acid] | – | 0.389 ± 0.042 | – |
| O=C(O)c1cc(-c2ccc([C@H]3C[C@H]4C[C@@H]3C(=O)N4)cc2)c2ccc(-c3ccc(C(F)(F)F)cc3)cc2c1 [Compound 119, 4-(4-((1S,4S,5S)-3-Oxo-2-azabicyclo[2.2.1]heptan-5-yl)phenyl)-7-(4-(trifluoromethyl)phenyl)-2-naphthoic acid] | – | – | IC50 [3]: 0.101 ± 0.07 µM |
| O=C(O)c1cc(-c2ccc([C@H]3C[C@H]4C[C@@H]3NC4=O)cc2)c2ccc(-c3ccc(C(F)(F)F)cc3)cc2c1 [Compound 122, 4-(4-((1S,4S,6R)-3-Oxo-2-azabicyclo[2.2.1]heptan-6-yl)phenyl)-7-(4-(trifluoromethyl)phenyl)-2-naphthoic acid] | – | – | IC50 [3]: 0.0586 ± 0.0129 µM |
| CS(=O)(=O)N1C[C@H]2C[C@@H]1C[C@@H]2c1ccc(-c2cc(C(=O)O)cc3cc(-c4ccc(C(F)(F)F)cc4)ccc23)cc1 [Compound 123] | – | – | IC50 [3]: 0.497 ± 0.092 µM |
| N[C@H]1C[C@@H](CO)C[C@@H]1c1ccc(-c2cc(C(=O)O)cc3cc(-c4ccc(C(F)(F)F)cc4)ccc23)cc1 [Compound 137, 4-(4-((1R,2S,4S)-2-Amino-4-(hydroxymethyl)cyclopentyl)phenyl)-7-(4-(trifluoromethyl)phenyl)-2-naphthoic acid] | – | – | IC50 (Table 6, fluorescent hP2Y14R antagonist (3), read-out: hP2Y14R, IC50): 0.125 ± 0.045 µM |
| O=C(O)c1cc(-c2ccc(C3CNC3)cc2)c2ccc(-c3ccc(C(F)(F)F)cc3)cc2c1 [Compound 405, 4-(4-(Azetidin-3-yl)phenyl)-7-(4-(trifluoromethyl)phenyl)-2-naphthoic acid] | 0.0659 ± 0.0193 | – | – |
| O=C(O)c1cc(-c2ccc(C3CC4(CNC4)C3)cc2)c2ccc(-c3ccc(C(F)(F)F)cc3)cc2c1 [Compound 406, 4-(4-(2-Azaspiro[3.3]heptan-6-yl)phenyl)-7-(4-(trifluoromethyl)phenyl)-2-naphthoic acid] | 0.0466 ± 0.0071 | – | – |
| O=C(O)c1cc(-c2ccc(C3=CC4(CNC4)C3)cc2)c2ccc(-c3ccc(C(F)(F)F)cc3)cc2c1 [Compound 407, 4-(4-(2-Azaspiro[3.3]hept-5-en-6-yl)phenyl)-7-(4-(trifluoromethyl)phenyl)-2-naphthoic acid] | 0.00969 ± 0.00356 | – | – |
| O=C(O)c1cc(-c2ccc(C3(O)CC4(CNC4)C3)cc2)c2ccc(-c3ccc(C(F)(F)F)cc3)cc2c1 [Compound 408, 4-(4-(6-Hydroxy-2-azaspiro[3.3]heptan-6-yl)phenyl)-7-(4-(trifluoromethyl)phenyl)-2-naphthoic acid] | 0.0208 ± 0.0056 | – | – |
| O=C(O)c1cc(-c2ccc([C@H]3[C@@H]4CNC[C@H]3C4)cc2)c2ccc(-c3ccc(C(F)(F)F)cc3)cc2c1 [Compound 424, 4-(4-((1R,5S,6r)-3-Azabicyclo[3.1.1]heptan-6-yl)phenyl)-7-(4-(trifluoromethyl)phenyl)-2-naphthoic acid] | 0.524 ± 0.104 | – | – |
| O=C(O)c1cc(-c2ccc([C@@]3(O)[C@@H]4CNC[C@H]3C4)cc2)c2ccc(-c3ccc(C(F)(F)F)cc3)cc2c1 [Compound 425, 4-(4-((1R,5S,6r)-6-Hydroxy-3-azabicyclo[3.1.1]heptan-6-yl)phenyl)-7-(4-(trifluoromethyl)phenyl)-2-naphthoic acid] | 0.00592 ± 0.00055 | – | – |
| O=C(O)c1cc(-c2ccc(C3CCCNCC3)cc2)c2ccc(-c3ccc(C(F)(F)F)cc3)cc2c1 (centres unmarked) [Compound 426, 4-(4-(Azepan-4-yl)phenyl)-7-(4-(trifluoromethyl)phenyl)-2-naphthoic acid] | 0.00958 ± 0.00514 | – | – |
| O=C(O)c1cc(-c2ccc(C3(O)CCCNCCC3)cc2)c2ccc(-c3ccc(C(F)(F)F)cc3)cc2c1 [Compound 430, 4-(4-(5-hydroxyazocan-5-yl)phenyl)-7-(4-(trifluoromethyl)phenyl)-2-naphthoic acid] | 1.78 ± 0.44 | – | – |
